In patent publication US6984653B2, “Heterocyclic compounds, oxazole derivatives, process for preparation of the same and use thereof” (Takeda Pharmaceutical Company Limited, priority 2001, dated 2006):

What was measured:
HER2 = molecular target: T1, HER2 (Homo sapiens, UniProt P04626); assay: Suppression of receptor tyrosine-phosphorylation in human breast cancer cells BT-474; type: cell-based; settings: BT-474 cells, 2 hours with test compound, anti-phosphotyrosine antibody blot; read-out: Inhibition of intracellular HER2 phosphorylation BT-474 (IC50: μM)
T1 construct: Taking as 100% the amount of phosphorylation of the HER2 tyrosine in control group; endogenous in cells; host or cells: BT-474 human breast cancer cells
Method: A suspension of human breast cancer cell BT-474 (500 μl (300,000 cells)) were sown into a 24-well plate, and cultured at 37° C. in the presence of 5% carbon dioxide. On the following day, 250 μl of a solution of the test compound, which was previously 4-fold diluted, was added. After 2 hours, the extraction was added to stop the reaction and the protein was extracted. This protein was subjected to protein electrophoresis to separate and transferred to a nylon filter. This filter was reacted with an anti-phosphotyrosine antibody; the reaction product was luminated. The amount of film photosensitization was determined using an image analyzer. Taking as 100% the amount of phosphorylation of the HER2 tyrosine in control group, the ratio of the amount of phosphorylation of the HER2 tyrosine in each group receiving a solution of the test compound at each concentration was determined, and the test compound concentration required to achieve 50% suppression by the test compound of the amount of phosphorylation of HER2 tyrosine (IC50 value) was calculated.

[1] = test system: human breast cancer cell BT-474; assay: Inhibitory action on breast cancer cell BT-474 proliferation in vitro (SRB); type: cell-based; settings: 120 h, BT-474 cells, cultured for 5 days, SRB staining, read-out: Cell growth inhibition BT-474 (IC50: μM)
Method: A suspension of human breast cancer cell BT-474 (100 μl (6,000 cells)) were sown to a 96-well microplate and cultured at 37° C. in the presence of 5% carbon dioxide. On the following day, 100 μl of a solution of each test compound, which was previously diluted 2-fold, was added, and the cells were cultured for 5 days. After the culture medium containing the test compound was removed, the cells were washed and fixed with 50% trichloroacetic acid, after which a 0.4% (w/v) SRB solution (dissolved in 1% acetic acid) was added to stain the cells (Skehan et al., Journal of the National Cancer Institute, Vol. 82, pp. 1107-1112, 1990). After the pigment solution was removed and the plate was washed with a 1% acetic acid solution, 100 μl of an extract (10 mM Tris solution) was added to dissolve the pigment; absorbance was measured at an absorption wavelength of 550 nm to quantify the amount of cells as protein content. Taking as 100% the absorbance for the control group, which received no test compound solution, the ratio of the absorbance for each treatment group was determined, and the compound concentration required to achieve 50% suppression of the residual cell content relative to the control (IC50 value) was calculated.

T1 sequence (P04626 23-1255): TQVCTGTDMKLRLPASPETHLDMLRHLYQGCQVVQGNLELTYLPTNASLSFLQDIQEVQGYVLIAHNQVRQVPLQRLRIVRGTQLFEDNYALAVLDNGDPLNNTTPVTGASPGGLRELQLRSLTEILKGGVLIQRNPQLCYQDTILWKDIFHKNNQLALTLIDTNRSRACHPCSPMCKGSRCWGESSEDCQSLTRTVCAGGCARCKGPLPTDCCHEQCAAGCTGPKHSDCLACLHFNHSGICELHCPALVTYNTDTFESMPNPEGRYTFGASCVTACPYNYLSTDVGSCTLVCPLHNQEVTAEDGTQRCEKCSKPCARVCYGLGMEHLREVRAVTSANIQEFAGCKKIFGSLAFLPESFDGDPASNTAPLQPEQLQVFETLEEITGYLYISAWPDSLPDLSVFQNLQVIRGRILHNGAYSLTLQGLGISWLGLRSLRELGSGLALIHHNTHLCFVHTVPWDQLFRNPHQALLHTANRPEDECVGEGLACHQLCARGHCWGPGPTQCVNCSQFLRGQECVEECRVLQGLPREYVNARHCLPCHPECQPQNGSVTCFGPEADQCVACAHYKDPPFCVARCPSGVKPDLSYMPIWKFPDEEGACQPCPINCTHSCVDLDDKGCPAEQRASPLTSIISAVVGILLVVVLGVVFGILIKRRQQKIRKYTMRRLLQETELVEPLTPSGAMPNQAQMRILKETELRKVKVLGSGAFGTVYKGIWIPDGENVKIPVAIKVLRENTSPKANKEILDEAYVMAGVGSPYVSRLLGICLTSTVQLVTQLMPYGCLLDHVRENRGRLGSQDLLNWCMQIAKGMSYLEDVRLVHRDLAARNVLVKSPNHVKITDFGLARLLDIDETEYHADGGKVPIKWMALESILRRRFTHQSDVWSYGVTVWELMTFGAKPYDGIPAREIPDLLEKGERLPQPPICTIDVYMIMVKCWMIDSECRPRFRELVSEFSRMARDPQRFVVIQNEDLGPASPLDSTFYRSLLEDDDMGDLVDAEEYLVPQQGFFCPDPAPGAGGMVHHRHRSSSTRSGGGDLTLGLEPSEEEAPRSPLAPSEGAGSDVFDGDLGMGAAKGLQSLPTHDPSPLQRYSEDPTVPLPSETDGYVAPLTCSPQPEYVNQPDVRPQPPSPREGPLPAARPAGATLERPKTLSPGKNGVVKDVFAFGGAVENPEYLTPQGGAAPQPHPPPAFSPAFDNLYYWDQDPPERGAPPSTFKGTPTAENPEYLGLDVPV

Row | SMILES | IC50 (HER2) | IC50 [1]
1 | CS(=O)(=O)CCc1nccn1CCCCc1ccc(OCc2coc(/C=C/c3ccc(F)cc3)n2)cc1 [Example 11, 2-[(E)-2-(4-fluorophenyl)ethenyl]-4-[[4-[4-[2-[2-(methylsulfonyl)ethyl]-1H-imidazol-1-yl]butyl]phenoxy]methyl]-1,3-oxazole] | < 4 µM | 
2 | O=C(OCCc1nccn1CCCCc1ccc(OCc2coc(/C=C/c3ccc(C(F)(F)F)cc3)n2)cc1)N1CCCC1 [Example 3, 2-[1-[4-[4-[[2-[(E)-2-[4-(trifluoromethyl)phenyl]ethenyl]-1,3-oxazol-4-yl]methoxy]phenyl]butyl]-1H-imidazol-2-yl]ethyl 1-pyrroridinecarboxylate] | < 4 µM | < 0.05 µM
3 | CC(C)NC(=O)OCCc1nccn1CCCCc1ccc(OCc2coc(/C=C/c3ccc(C(F)(F)F)cc3)n2)cc1 [Example 1, 2-[1-[4-[4-[[2-[(E)-2-[4-(trifluoromethyl)phenyl]ethenyl]-1,3-oxazol-4-yl]methoxy]phenyl]butyl]-1H-imidazol-2-yl]ethyl isopropylcarbamate] | < 4 µM | < 0.05 µM
4 | CS(=O)(=O)NCCc1nccn1CCCCc1ccc(OCc2coc(/C=C/c3ccc(C(F)(F)F)cc3)n2)cc1 [Example 16, N-[2-[1-[4-[4-[[2-[(E)-2-[4-(trifluoromethyl)phenyl]ethenyl]-1,3-oxazol-4-yl]methoxy]phenyl]butyl]-1H-imidazol-2-yl]ethyl]methanesulfonamide] | < 4 µM | 0.15 µM

Next, values leading:

Row | IC50 (HER2) | IC50 [1] | SMILES
5 | < 4 µM | < 0.05 µM | O=C(CCc1nccn1CCCCc1ccc(OCc2coc(/C=C/c3ccc(C(F)(F)F)cc3)n2)cc1)N1CCCC1 [Example 6, 1-{3-[1-(4-{4-[(2-{(E)-2-[4-(trifluoromethyl)phenyl]ethenyl}-1,3-oxazol-4-yl)methoxy]phenyl}butyl)-1H-imidazol-2-yl]propanoyl}pyrrolidine]
6 | < 4 µM | < 0.05 µM | CN(C)C(=O)CCc1nccn1CCCCc1ccc(OCc2coc(/C=C/c3ccc(C(F)(F)F)cc3)n2)cc1 [Example 5, N,N-dimethyl-3-[1-[4-[4-[[2-[(E)-2-[4-(trifluoromethyl)phenyl]ethenyl]-1,3-oxazol-4-yl]methoxy]phenyl]butyl]-1H-imidazol-2-yl]propanamide]
7 | < 4 µM |  | CS(=O)(=O)CCc1nccn1CCCCc1ccc(OCc2coc(/C=C/c3ccc(C(F)(F)F)cc3)n2)cc1 [Example 17, 4-[[4-[4-[2-[2-(methylsulfonyl)ethyl]-1H-imidazol-1-yl]butyl]phenoxy]methyl]-2-[(E)-2-[4-(trifluoromethyl)phenyl]ethenyl]-1,3-oxazole]
